{
  "source": "PubChem BioAssay (NCI)",
  "assay_in_all_cases": "NCI tumour cell line growth inhibition, 48 h",
  "key": {"786-0 renal": {"test_system": "786-0 renal"}, "A498 renal": {"test_system": "A498 renal"}, "A549 NSCLC": {"test_system": "A549 NSCLC"}, "ACHN renal": {"test_system": "ACHN renal"}, "CAKI-1 renal": {"test_system": "CAKI-1 renal"}, "CCRF-CEM leukemia": {"test_system": "CCRF-CEM leukemia"}, "COLO 205 colon": {"test_system": "COLO 205 colon"}, "DLD-1 colon": {"test_system": "DLD-1 colon"}, "DMS 273 small cell lung": {"test_system": "DMS 273 small cell lung"}, "EKVX NSCLC": {"test_system": "EKVX NSCLC"}, "HCC-2998 colon": {"test_system": "HCC-2998 colon"}, "HCT-116 colon": {"test_system": "HCT-116 colon"}, "HCT-15 colon": {"test_system": "HCT-15 colon"}, "HL-60(TB) leukemia": {"test_system": "HL-60(TB) leukemia"}, "HOP-18 NSCLC": {"test_system": "HOP-18 NSCLC"}, "HOP-62 NSCLC": {"test_system": "HOP-62 NSCLC"}, "HT29 colon": {"test_system": "HT29 colon"}, "IGROV1 ovarian": {"test_system": "IGROV1 ovarian"}, "K-562 leukemia": {"test_system": "K-562 leukemia"}, "KM12 colon": {"test_system": "KM12 colon"}, "KM20L2 colon": {"test_system": "KM20L2 colon"}, "LOX IMVI melanoma": {"test_system": "LOX IMVI melanoma"}, "LXFL 529 NSCLC": {"test_system": "LXFL 529 NSCLC"}, "M14 melanoma": {"test_system": "M14 melanoma"}, "M19-MEL melanoma": {"test_system": "M19-MEL melanoma"}, "MALME-3M melanoma": {"test_system": "MALME-3M melanoma"}, "MOLT-4 leukemia": {"test_system": "MOLT-4 leukemia"}, "NCI-H226 lung": {"test_system": "NCI-H226 lung"}, "NCI-H23 lung": {"test_system": "NCI-H23 lung"}, "NCI-H460 lung": {"test_system": "NCI-H460 lung"}, "NCI-H522 lung": {"test_system": "NCI-H522 lung"}, "OVCAR-3 ovarian": {"test_system": "OVCAR-3 ovarian"}, "OVCAR-4 ovarian": {"test_system": "OVCAR-4 ovarian"}, "OVCAR-5 ovarian": {"test_system": "OVCAR-5 ovarian"}, "OVCAR-8 ovarian": {"test_system": "OVCAR-8 ovarian"}, "RPMI-8226 leukemia": {"test_system": "RPMI-8226 leukemia"}, "RXF 393 renal": {"test_system": "RXF 393 renal"}, "SF-268 CNS": {"test_system": "SF-268 CNS"}, "SF-295 CNS": {"test_system": "SF-295 CNS"}, "SF-539 CNS": {"test_system": "SF-539 CNS"}, "SK-MEL-2 melanoma": {"test_system": "SK-MEL-2 melanoma"}, "SK-MEL-28 melanoma": {"test_system": "SK-MEL-28 melanoma"}, "SK-MEL-5 melanoma": {"test_system": "SK-MEL-5 melanoma"}, "SK-OV-3 ovarian": {"test_system": "SK-OV-3 ovarian"}, "SN12C renal": {"test_system": "SN12C renal"}, "SNB-19 CNS": {"test_system": "SNB-19 CNS"}, "SNB-75 CNS": {"test_system": "SNB-75 CNS"}, "SNB-78 CNS": {"test_system": "SNB-78 CNS"}, "SR leukemia": {"test_system": "SR leukemia"}, "SW-620 colon": {"test_system": "SW-620 colon"}, "TK-10 renal": {"test_system": "TK-10 renal"}, "U251 CNS": {"test_system": "U251 CNS"}, "UACC-257 melanoma": {"test_system": "UACC-257 melanoma"}, "UACC-62 melanoma": {"test_system": "UACC-62 melanoma"}, "UO-31 renal": {"test_system": "UO-31 renal"}},
  "note": "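Five compound concentrations were applied to cells in 96-well plates for 48 hours; endpoints were derived by simple linear interpolation of the resulting dose-response curve. TGI: total growth inhibition.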",
  "data": [
    {"molecule": "CCOC(=O)C1=C(Nc2ccc(Br)cc2)OC/C1=N\\NC(=O)c1ccccc1O", "values": [
      {"measurement": "TGI", "setting": "786-0 renal", "value": "> 100", "unit": "µM"},
      {"measurement": "TGI", "setting": "A498 renal", "value": 99.3, "unit": "µM"},
      {"measurement": "TGI", "setting": "A549 NSCLC", "value": "> 100", "unit": "µM"},
      {"measurement": "TGI", "setting": "ACHN renal", "value": "> 100", "unit": "µM"},
      {"measurement": "TGI", "setting": "CAKI-1 renal", "value": "> 71.1", "unit": "µM"},
      {"measurement": "TGI", "setting": "CCRF-CEM leukemia", "value": 34.3, "unit": "µM"},
      {"measurement": "TGI", "setting": "COLO 205 colon", "value": "> 100", "unit": "µM"},
      {"measurement": "TGI", "setting": "DLD-1 colon", "value": 97.3, "unit": "µM"},
      {"measurement": "TGI", "setting": "DMS 273 small cell lung", "value": 17, "unit": "µM"},
      {"measurement": "TGI", "setting": "EKVX NSCLC", "value": "> 93.9", "unit": "µM"},
      {"measurement": "TGI", "setting": "HCC-2998 colon", "value": "> 100", "unit": "µM"},
      {"measurement": "TGI", "setting": "HCT-116 colon", "value": "> 62", "unit": "µM"},
      {"measurement": "TGI", "setting": "HCT-15 colon", "value": "> 65.3", "unit": "µM"},
      {"measurement": "TGI", "setting": "HL-60(TB) leukemia", "value": 37.2, "unit": "µM"},
      {"measurement": "TGI", "setting": "HOP-18 NSCLC", "value": "> 100", "unit": "µM"},
      {"measurement": "TGI", "setting": "HOP-62 NSCLC", "value": "> 65.1", "unit": "µM"},
      {"measurement": "TGI", "setting": "HT29 colon", "value": "> 100", "unit": "µM"},
      {"measurement": "TGI", "setting": "IGROV1 ovarian", "value": "> 100", "unit": "µM"},
      {"measurement": "TGI", "setting": "K-562 leukemia", "value": 38.6, "unit": "µM"},
      {"measurement": "TGI", "setting": "KM12 colon", "value": "> 100", "unit": "µM"},
      {"measurement": "TGI", "setting": "KM20L2 colon", "value": "> 100", "unit": "µM"},
      {"measurement": "TGI", "setting": "LOX IMVI melanoma", "value": 20.3, "unit": "µM"},
      {"measurement": "TGI", "setting": "LXFL 529 NSCLC", "value": "> 100", "unit": "µM"},
      {"measurement": "TGI", "setting": "M14 melanoma", "value": "> 100", "unit": "µM"},
      {"measurement": "TGI", "setting": "M19-MEL melanoma", "value": "> 100", "unit": "µM"},
      {"measurement": "TGI", "setting": "MALME-3M melanoma", "value": "> 100", "unit": "µM"},
      {"measurement": "TGI", "setting": "MOLT-4 leukemia", "value": 35.2, "unit": "µM"},
      {"measurement": "TGI", "setting": "NCI-H226 lung", "value": "> 84", "unit": "µM"},
      {"measurement": "TGI", "setting": "NCI-H23 lung", "value": 33.1, "unit": "µM"},
      {"measurement": "TGI", "setting": "NCI-H460 lung", "value": "> 100", "unit": "µM"},
      {"measurement": "TGI", "setting": "NCI-H522 lung", "value": 34.2, "unit": "µM"},
      {"measurement": "TGI", "setting": "OVCAR-3 ovarian", "value": 77.7, "unit": "µM"},
      {"measurement": "TGI", "setting": "OVCAR-4 ovarian", "value": "> 100", "unit": "µM"},
      {"measurement": "TGI", "setting": "OVCAR-5 ovarian", "value": "> 100", "unit": "µM"},
      {"measurement": "TGI", "setting": "OVCAR-8 ovarian", "value": "> 100", "unit": "µM"},
      {"measurement": "TGI", "setting": "RPMI-8226 leukemia", "value": 49.4, "unit": "µM"},
      {"measurement": "TGI", "setting": "RXF 393 renal", "value": 14.2, "unit": "µM"},
      {"measurement": "TGI", "setting": "SF-268 CNS", "value": "> 100", "unit": "µM"},
      {"measurement": "TGI", "setting": "SF-295 CNS", "value": "> 100", "unit": "µM"},
      {"measurement": "TGI", "setting": "SF-539 CNS", "value": "> 77.6", "unit": "µM"},
      {"measurement": "TGI", "setting": "SK-MEL-2 melanoma", "value": "> 100", "unit": "µM"},
      {"measurement": "TGI", "setting": "SK-MEL-28 melanoma", "value": "> 100", "unit": "µM"},
      {"measurement": "TGI", "setting": "SK-MEL-5 melanoma", "value": "> 100", "unit": "µM"},
      {"measurement": "TGI", "setting": "SK-OV-3 ovarian", "value": "> 67.7", "unit": "µM"},
      {"measurement": "TGI", "setting": "SN12C renal", "value": "> 100", "unit": "µM"},
      {"measurement": "TGI", "setting": "SNB-19 CNS", "value": "> 100", "unit": "µM"},
      {"measurement": "TGI", "setting": "SNB-75 CNS", "value": "> 48.3", "unit": "µM"},
      {"measurement": "TGI", "setting": "SNB-78 CNS", "value": "> 79.7", "unit": "µM"},
      {"measurement": "TGI", "setting": "SR leukemia", "value": 18.4, "unit": "µM"},
      {"measurement": "TGI", "setting": "SW-620 colon", "value": "> 49.4", "unit": "µM"},
      {"measurement": "TGI", "setting": "TK-10 renal", "value": "> 100", "unit": "µM"},
      {"measurement": "TGI", "setting": "U251 CNS", "value": "> 100", "unit": "µM"},
      {"measurement": "TGI", "setting": "UACC-257 melanoma", "value": "> 95.3", "unit": "µM"},
      {"measurement": "TGI", "setting": "UACC-62 melanoma", "value": 8.63, "unit": "µM"},
      {"measurement": "TGI", "setting": "UO-31 renal", "value": "> 50.9", "unit": "µM"}
    ]}
  ]
}
